# Measurements: PubChem BioAssay (NCI)
#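 Cells were grown in 96-well plates and exposed to each compound for 48 hours at five concentrations; endpoints were interpolated linearly between bracketing concentrations, or set to the highest concentration if not reached. Abbreviation: GI50, concentration required for 50% inhibition of growth. TGI denotes the concentration required for complete inhibition of growth.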
# Tests used:
# Experiment in all cases: DTP human tumour cell line panel, 48 h
# 786-0 renal = tested on: 786-0 renal
# A498 renal = tested on: A498 renal
# A549 NSCLC = tested on: A549 NSCLC
# ACHN renal = tested on: ACHN renal
# BT-549 breast = tested on: BT-549 breast
# CAKI-1 renal = tested on: CAKI-1 renal
# CCRF-CEM leukemia = tested on: CCRF-CEM leukemia
# COLO 205 colon = tested on: COLO 205 colon
# DU-145 prostate = tested on: DU-145 prostate
# EKVX NSCLC = tested on: EKVX NSCLC
# HCC-2998 colon = tested on: HCC-2998 colon
# HCT-116 colon = tested on: HCT-116 colon
# HCT-15 colon = tested on: HCT-15 colon
# HL-60(TB) leukemia = tested on: HL-60(TB) leukemia
# HOP-62 NSCLC = tested on: HOP-62 NSCLC
# HOP-92 NSCLC = tested on: HOP-92 NSCLC
# HS 578T breast = tested on: HS 578T breast
# HT29 colon = tested on: HT29 colon
# IGROV1 ovarian = tested on: IGROV1 ovarian
# K-562 leukemia = tested on: K-562 leukemia
# KM12 colon = tested on: KM12 colon
# LOX IMVI melanoma = tested on: LOX IMVI melanoma
# M14 melanoma = tested on: M14 melanoma
# MALME-3M melanoma = tested on: MALME-3M melanoma
# MCF7 breast = tested on: MCF7 breast
# MDA-MB-231 breast = tested on: MDA-MB-231 breast
# MDA-MB-435 = tested on: MDA-MB-435
# MOLT-4 leukemia = tested on: MOLT-4 leukemia
# NCI-H226 lung = tested on: NCI-H226 lung
# NCI-H23 lung = tested on: NCI-H23 lung
# NCI-H460 lung = tested on: NCI-H460 lung
# NCI-H522 lung = tested on: NCI-H522 lung
# NCI/ADR-RES ovarian = tested on: NCI/ADR-RES ovarian
# OVCAR-3 ovarian = tested on: OVCAR-3 ovarian
# OVCAR-4 ovarian = tested on: OVCAR-4 ovarian
# OVCAR-5 ovarian = tested on: OVCAR-5 ovarian
# OVCAR-8 ovarian = tested on: OVCAR-8 ovarian
# PC-3 prostate = tested on: PC-3 prostate
# RPMI-8226 leukemia = tested on: RPMI-8226 leukemia
# RXF 393 renal = tested on: RXF 393 renal
# SF-268 CNS = tested on: SF-268 CNS
# SF-295 CNS = tested on: SF-295 CNS
# SF-539 CNS = tested on: SF-539 CNS
# SK-MEL-2 melanoma = tested on: SK-MEL-2 melanoma
# SK-MEL-28 melanoma = tested on: SK-MEL-28 melanoma
# SK-MEL-5 melanoma = tested on: SK-MEL-5 melanoma
# SK-OV-3 ovarian = tested on: SK-OV-3 ovarian
# SN12C renal = tested on: SN12C renal
# SNB-19 CNS = tested on: SNB-19 CNS
# SNB-75 CNS = tested on: SNB-75 CNS
# SR leukemia = tested on: SR leukemia
# SW-620 colon = tested on: SW-620 colon
# T-47D breast = tested on: T-47D breast
# TK-10 renal = tested on: TK-10 renal
# U251 CNS = tested on: U251 CNS
# UACC-257 melanoma = tested on: UACC-257 melanoma
# UACC-62 melanoma = tested on: UACC-62 melanoma
# UO-31 renal = tested on: UO-31 renal
structure (smiles),measurement,setting,value
Nc1cccc(CCN2CCN(CCCc3ccccc3)CC2)c1,TGI,786-0 renal,37.4 µM
same,TGI,A498 renal,> 100 µM
same,TGI,A549 NSCLC,> 100 µM
same,TGI,ACHN renal,> 100 µM
same,TGI,BT-549 breast,> 100 µM
same,TGI,CAKI-1 renal,> 100 µM
same,TGI,CCRF-CEM leukemia,> 100 µM
same,TGI,COLO 205 colon,34.8 µM
same,TGI,DU-145 prostate,> 100 µM
same,TGI,EKVX NSCLC,> 100 µM
same,TGI,HCC-2998 colon,28.2 µM
same,TGI,HCT-116 colon,36.7 µM
same,TGI,HCT-15 colon,38.2 µM
same,TGI,HL-60(TB) leukemia,> 100 µM
same,TGI,HOP-62 NSCLC,> 100 µM
same,TGI,HOP-92 NSCLC,53.8 µM
same,TGI,HS 578T breast,> 100 µM
same,TGI,HT29 colon,46.5 µM
same,TGI,IGROV1 ovarian,> 100 µM
same,TGI,K-562 leukemia,> 100 µM
same,TGI,KM12 colon,81.5 µM
same,TGI,LOX IMVI melanoma,33.1 µM
same,TGI,M14 melanoma,32.3 µM
same,TGI,MALME-3M melanoma,38 µM
same,TGI,MCF7 breast,36.4 µM
same,TGI,MDA-MB-231 breast,> 100 µM
same,TGI,MDA-MB-435,36.9 µM
same,TGI,MOLT-4 leukemia,> 100 µM
same,TGI,NCI-H226 lung,> 100 µM
same,TGI,NCI-H23 lung,> 100 µM
same,TGI,NCI-H460 lung,71.4 µM
same,TGI,NCI-H522 lung,30.1 µM
same,TGI,NCI/ADR-RES ovarian,> 100 µM
same,TGI,OVCAR-3 ovarian,41.2 µM
same,TGI,OVCAR-4 ovarian,> 100 µM
same,TGI,OVCAR-5 ovarian,> 100 µM
same,TGI,OVCAR-8 ovarian,63.2 µM
same,TGI,PC-3 prostate,> 100 µM
same,TGI,RPMI-8226 leukemia,> 100 µM
same,TGI,RXF 393 renal,52.2 µM
same,TGI,SF-268 CNS,> 100 µM
same,TGI,SF-295 CNS,70 µM
same,TGI,SF-539 CNS,40.6 µM
same,TGI,SK-MEL-2 melanoma,> 100 µM
same,TGI,SK-MEL-28 melanoma,88.4 µM
same,TGI,SK-MEL-5 melanoma,34.3 µM
same,TGI,SK-OV-3 ovarian,> 100 µM
same,TGI,SN12C renal,> 100 µM
same,TGI,SNB-19 CNS,> 100 µM
same,TGI,SNB-75 CNS,> 100 µM
same,TGI,SR leukemia,65.9 µM
same,TGI,SW-620 colon,> 100 µM
same,TGI,T-47D breast,52.6 µM
same,TGI,TK-10 renal,> 100 µM
same,TGI,U251 CNS,> 100 µM
same,TGI,UACC-257 melanoma,65.3 µM
same,TGI,UACC-62 melanoma,52.7 µM
same,TGI,UO-31 renal,> 100 µM
COc1cc(C2CC(c3cccc(Nc4ccnc5cc(Cl)ccc45)c3)=NN2C=O)cc(OC)c1OC (configuration not stated),GI50,786-0 renal,1.12 µM
same,TGI,786-0 renal,5.16 µM
same,GI50,A498 renal,0.273 µM
same,TGI,A498 renal,1.63 µM
same,GI50,A549 NSCLC,0.571 µM
same,TGI,A549 NSCLC,10 µM
same,GI50,ACHN renal,1.27 µM
same,TGI,ACHN renal,5.32 µM
same,GI50,BT-549 breast,0.419 µM
same,TGI,BT-549 breast,1.7 µM
same,GI50,CAKI-1 renal,0.563 µM
same,TGI,CAKI-1 renal,2.47 µM
same,GI50,CCRF-CEM leukemia,0.462 µM
same,GI50,COLO 205 colon,0.635 µM
same,TGI,COLO 205 colon,7.15 µM
same,GI50,DU-145 prostate,1.97 µM
same,TGI,DU-145 prostate,11.8 µM
same,GI50,EKVX NSCLC,1.3 µM
same,TGI,EKVX NSCLC,26.1 µM
same,GI50,HCC-2998 colon,2.31 µM
same,TGI,HCC-2998 colon,24.4 µM
same,GI50,HCT-116 colon,0.381 µM
same,TGI,HCT-116 colon,1.64 µM
same,GI50,HCT-15 colon,0.626 µM
same,TGI,HCT-15 colon,> 100 µM
same,GI50,HL-60(TB) leukemia,0.243 µM
same,TGI,HL-60(TB) leukemia,0.53 µM
same,GI50,HOP-62 NSCLC,0.846 µM
same,TGI,HOP-62 NSCLC,8.31 µM
same,GI50,HOP-92 NSCLC,2.75 µM
same,TGI,HOP-92 NSCLC,85.4 µM
same,GI50,HS 578T breast,0.545 µM
same,TGI,HS 578T breast,9.36 µM
same,GI50,HT29 colon,0.364 µM
same,TGI,HT29 colon,1.23 µM
same,GI50,IGROV1 ovarian,2.12 µM
same,TGI,IGROV1 ovarian,> 43.2 µM
same,GI50,K-562 leukemia,0.435 µM
same,TGI,K-562 leukemia,12.6 µM
same,GI50,KM12 colon,0.502 µM
same,TGI,KM12 colon,> 23.4 µM
same,GI50,LOX IMVI melanoma,0.791 µM
same,TGI,LOX IMVI melanoma,7.15 µM
same,GI50,M14 melanoma,0.319 µM
same,TGI,M14 melanoma,2 µM
same,GI50,MALME-3M melanoma,0.825 µM
same,TGI,MALME-3M melanoma,5.14 µM
same,GI50,MCF7 breast,0.354 µM
same,TGI,MCF7 breast,10.2 µM
same,GI50,MDA-MB-231 breast,1.36 µM
same,TGI,MDA-MB-231 breast,13.7 µM
same,GI50,MDA-MB-435,0.157 µM
same,TGI,MDA-MB-435,0.466 µM
same,GI50,MOLT-4 leukemia,0.595 µM
same,TGI,MOLT-4 leukemia,4.44 µM
same,GI50,NCI-H226 lung,1.98 µM
same,TGI,NCI-H226 lung,6.15 µM
same,GI50,NCI-H23 lung,1.4 µM
same,TGI,NCI-H23 lung,21.5 µM
same,GI50,NCI-H460 lung,0.436 µM
same,TGI,NCI-H460 lung,> 40.4 µM
same,GI50,NCI-H522 lung,0.502 µM
same,TGI,NCI-H522 lung,6.68 µM
same,GI50,NCI/ADR-RES ovarian,1.3 µM
same,TGI,NCI/ADR-RES ovarian,6.3 µM
same,GI50,OVCAR-3 ovarian,0.408 µM
same,TGI,OVCAR-3 ovarian,1.35 µM
same,GI50,OVCAR-4 ovarian,1.13 µM
same,TGI,OVCAR-4 ovarian,6.21 µM
same,GI50,OVCAR-5 ovarian,3.5 µM
same,TGI,OVCAR-5 ovarian,20.3 µM
same,GI50,OVCAR-8 ovarian,1.64 µM
same,TGI,OVCAR-8 ovarian,> 28.3 µM
same,GI50,PC-3 prostate,0.979 µM
same,TGI,PC-3 prostate,19.2 µM
same,GI50,RPMI-8226 leukemia,3.72 µM
same,TGI,RPMI-8226 leukemia,> 23 µM
same,GI50,RXF 393 renal,1.38 µM
same,TGI,RXF 393 renal,5.29 µM
same,GI50,SF-268 CNS,1.49 µM
same,TGI,SF-268 CNS,> 34.8 µM
same,GI50,SF-295 CNS,0.357 µM
same,TGI,SF-295 CNS,3.61 µM
same,GI50,SF-539 CNS,1.02 µM
same,TGI,SF-539 CNS,3.89 µM
same,GI50,SK-MEL-2 melanoma,0.504 µM
same,TGI,SK-MEL-2 melanoma,3.08 µM
same,GI50,SK-MEL-28 melanoma,0.961 µM
same,TGI,SK-MEL-28 melanoma,4.26 µM
same,GI50,SK-MEL-5 melanoma,0.454 µM
same,TGI,SK-MEL-5 melanoma,2.34 µM
same,GI50,SK-OV-3 ovarian,1.35 µM
same,TGI,SK-OV-3 ovarian,4.14 µM
same,GI50,SN12C renal,1.14 µM
same,TGI,SN12C renal,27.2 µM
same,GI50,SNB-19 CNS,2.52 µM
same,TGI,SNB-19 CNS,> 100 µM
same,GI50,SNB-75 CNS,0.31 µM
same,TGI,SNB-75 CNS,2.3 µM
same,GI50,SR leukemia,0.318 µM
same,TGI,SR leukemia,1.7 µM
same,GI50,SW-620 colon,0.401 µM
same,GI50,T-47D breast,0.805 µM
same,TGI,T-47D breast,5.17 µM
same,GI50,TK-10 renal,1.12 µM
same,TGI,TK-10 renal,4.45 µM
same,GI50,U251 CNS,0.393 µM
same,TGI,U251 CNS,3.46 µM
same,GI50,UACC-257 melanoma,0.743 µM
same,TGI,UACC-257 melanoma,5.6 µM
same,GI50,UACC-62 melanoma,0.621 µM
same,TGI,UACC-62 melanoma,2.66 µM
same,GI50,UO-31 renal,1.32 µM
same,TGI,UO-31 renal,4.69 µM
